Data: ChEMBL document CHEMBL1201862, “PubChem BioAssay data set” (2004)
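Results reflect a 48-hour exposure of cells in 96-well plates to compound at five concentrations. GI50: concentration for 50% inhibition of growth.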 Calls of active or inactive are those of the source. Cut-off read from the data, not from the text of the source: active = GI50 up to about 1.1 µM and inactive = higher. Where a SMILES comes first, the peptide text is derived from it. The star is where a group is joined. Boc = CC(C)(C)OC(=O)*; OBn = c1ccc(CO*)cc1

Experiments:
Test in all cases: NCI tumour cell line growth inhibition, 48 h
OVCAR-4 = system: OVCAR-4
MOLT-4 = system: MOLT-4
U-251 = system: U-251
CCRF-CEM = system: CCRF-CEM
HOP-92 = system: HOP-92
CAKI-1 = system: CAKI-1
HL-60 = system: HL-60
RXF 393 = system: RXF 393
NCI-H226 = system: NCI-H226
BT-549 = system: BT-549
SK-MEL-5 = system: SK-MEL-5
MDA-N = system: MDA-N
UACC-62 = system: UACC-62
SR = system: SR
SF-295 = system: SF-295
HCT-116 = system: HCT-116
ACHN = system: ACHN
M14 = system: M14
SN12C = system: SN12C
K562 = system: K562

Row | Structure (SMILES) | GI50 (OVCAR-4) | GI50 (MOLT-4) | GI50 (U-251) | GI50 (CCRF-CEM) | GI50 (HOP-92) | GI50 (CAKI-1) | GI50 (HL-60) | GI50 (RXF 393) | GI50 (NCI-H226) | GI50 (BT-549) | GI50 (SK-MEL-5) | GI50 (MDA-N) | GI50 (UACC-62) | GI50 (SR) | GI50 (SF-295) | GI50 (HCT-116) | GI50 (ACHN) | GI50 (M14) | GI50 (SN12C) | GI50 (K562)
1 | Cc1ccc(S(=O)(=O)NCc2cccc([N+](=O)[O-])c2)cc1 | > 100 µM (inactive) | 0.136 µM (active) | > 100 µM (inactive) | 27.8 µM (inactive) | > 100 µM (inactive) | > 100 µM (inactive) | 28.8 µM (inactive) | > 100 µM (inactive) | > 100 µM (inactive) | > 100 µM (inactive) | > 100 µM (inactive) | > 100 µM (inactive) | > 100 µM (inactive) | 5.3 µM (inactive) | > 100 µM (inactive) | > 100 µM (inactive) | > 100 µM (inactive) | > 100 µM (inactive) | > 100 µM (inactive) | 
2 | COc1cc(S(=O)(=O)Nc2nc(-c3ccc(/N=C/c4ccccc4O)cc3)cs2)ccc1Cl | 45.6 µM (inactive) | 27.5 µM (inactive) | 36.9 µM (inactive) | 26.5 µM (inactive) | 29 µM (inactive) | 60.4 µM (inactive) | 35.6 µM (inactive) | 34.3 µM (inactive) | 44.2 µM (inactive) | 37.4 µM (inactive) | 26 µM (inactive) | 30.5 µM (inactive) | 23.7 µM (inactive) | 34.7 µM (inactive) | 36 µM (inactive) | 29.4 µM (inactive) | 41.7 µM (inactive) | 30.1 µM (inactive) | 17.9 µM (inactive) | 30.4 µM (inactive)
3 | COP(=O)(OC)/C(=C/c1cn(C(c2ccccc2)(c2ccccc2)c2ccccc2)cn1)NC=O | 18.2 µM (inactive) | > 100 µM (inactive) | 16.4 µM (inactive) | 24.8 µM (inactive) | 18 µM (inactive) | 20.4 µM (inactive) | > 100 µM (inactive) | 16.3 µM (inactive) | 29.5 µM (inactive) | 16 µM (inactive) | 13.7 µM (inactive) | 19.2 µM (inactive) | 18.7 µM (inactive) | > 100 µM (inactive) | 13.8 µM (inactive) | 13.8 µM (inactive) | 12.1 µM (inactive) | 15.1 µM (inactive) | 19.2 µM (inactive) | 84.9 µM (inactive)
4 | CC(C)(C)c1ccc(-n2c3nc(=O)n(-c4ccccc4C(F)(F)F)c(=O)c-3cc3ccccc32)cc1 | 27.5 µM (inactive) | 17.9 µM (inactive) | 11 µM (inactive) | 13.3 µM (inactive) | 18.1 µM (inactive) | 25.1 µM (inactive) | 9.77 µM (inactive) | 24.2 µM (inactive) | 17 µM (inactive) | 24 µM (inactive) | 15 µM (inactive) | 22.2 µM (inactive) | 14.9 µM (inactive) | 19.3 µM (inactive) | 19 µM (inactive) | 10.5 µM (inactive) | 15.8 µM (inactive) | 14.4 µM (inactive) | 20.2 µM (inactive) | 16.9 µM (inactive)
5 | C[C@@H](NC(=O)c1ccc(CNC(=O)/C=C/c2cccc(Oc3ccccc3)c2)cc1)c1ccccc1 | > 100 µM (inactive) | > 100 µM (inactive) | 47.4 µM (inactive) | > 100 µM (inactive) | 59.7 µM (inactive) | 14.7 µM (inactive) | > 100 µM (inactive) | 2.51 µM (inactive) | 28.4 µM (inactive) | > 94 µM (inactive) | 99.8 µM (inactive) | > 100 µM (inactive) | > 82.6 µM (inactive) | > 100 µM (inactive) | 26.8 µM (inactive) | > 69.3 µM (inactive) | 12.5 µM (inactive) | 99.1 µM (inactive) | > 100 µM (inactive) | > 100 µM (inactive)
6 | Nc1cccc(Nc2nc3ccccc3nc2NS(=O)(=O)c2ccccc2)c1 | 15.6 µM (inactive) | 15.9 µM (inactive) | 17.7 µM (inactive) | 15.2 µM (inactive) | 23.3 µM (inactive) | 27 µM (inactive) | 20.7 µM (inactive) | 18.3 µM (inactive) | 38 µM (inactive) | 6.65 µM (inactive) | 15.4 µM (inactive) | 33.4 µM (inactive) | 20.7 µM (inactive) | 20.3 µM (inactive) | 27.5 µM (inactive) | 17.3 µM (inactive) | 27.5 µM (inactive) | 26.2 µM (inactive) | 26 µM (inactive) | 21.1 µM (inactive)
7 | COc1ccc2nccc(NCCCN3CCN(CCCNc4ccnc5ccc(OC)cc45)CC3)c2c1 | 1.04 µM (active) | 0.107 µM (active) | 0.232 µM (active) | 0.0828 µM (active) | 0.226 µM (active) | 3.69 µM (inactive) | 0.0953 µM (active) | 1.32 µM (inactive) | 0.255 µM (active) | 4.27 µM (inactive) | 1.06 µM (active) | 0.0881 µM (active) | 0.918 µM (active) | 0.505 µM (active) | 0.975 µM (active) | 0.221 µM (active) | 1.45 µM (inactive) | 1.08 µM (active) | 0.177 µM (active) | 0.228 µM (active)
8 | Cc1ccc(/C=N/Nc2ccc3ccccc3n2)s1 | 20.7 µM (inactive) | 9.55 µM (inactive) | 21.1 µM (inactive) | > 100 µM (inactive) | 19.1 µM (inactive) | > 100 µM (inactive) | 41.5 µM (inactive) | 37.7 µM (inactive) | 80.7 µM (inactive) | 18.2 µM (inactive) | 9.4 µM (inactive) | 13.4 µM (inactive) | 34.8 µM (inactive) | 22.2 µM (inactive) | 16.4 µM (inactive) | 7.78 µM (inactive) | 17.3 µM (inactive) | 16.9 µM (inactive) | 13 µM (inactive) | 16.9 µM (inactive)
9 | C[C@@]12CCC3C1C=C1C(=O)c4cc(O)ccc4C(=O)[C@]1(O2)[C@@]3(C)C=O | 6.22 µM (inactive) | 2.3 µM (inactive) | 9.44 µM (inactive) | 0.977 µM (active) | 10.3 µM (inactive) | 4.09 µM (inactive) | 1.42 µM (inactive) | 4.3 µM (inactive) | 12.6 µM (inactive) | 2.51 µM (inactive) | 7.29 µM (inactive) | 3.48 µM (inactive) | 7.43 µM (inactive) | 1.58 µM (inactive) | 11.5 µM (inactive) | 3.52 µM (inactive) | 7.11 µM (inactive) | 8.34 µM (inactive) | 2.02 µM (inactive) | 2.3 µM (inactive)
10 | CC1=CC(C)(C)[C@H]2O[C@@]3(O)C[C@]4(C)[C@H]5C[C@@](C(C)C)(O[C@H]4c4ccoc4)O[C@H]4[C@]5(C3)O[C@@]1(O)[C@]24O | 54.2 µM (inactive) | > 100 µM (inactive) | 74 µM (inactive) | > 100 µM (inactive) | 83.8 µM (inactive) | > 100 µM (inactive) | > 100 µM (inactive) | > 100 µM (inactive) | > 100 µM (inactive) | > 100 µM (inactive) | 44.2 µM (inactive) | > 100 µM (inactive) | > 100 µM (inactive) | > 100 µM (inactive) | > 100 µM (inactive) | 61.8 µM (inactive) | > 100 µM (inactive) | > 100 µM (inactive) | > 100 µM (inactive) | > 100 µM (inactive)
11 | COc1ccc2[nH]cc(CCNC(=O)[C@H](Cc3ccc(O)cc3)NC(=O)[C@@H](NCC(F)(F)F)C(C)C)c2c1 | 40 µM (inactive) | 68.5 µM (inactive) | 74.1 µM (inactive) | 39.7 µM (inactive) | 75.5 µM (inactive) |  | 41.3 µM (inactive) | > 100 µM (inactive) | 41.8 µM (inactive) | 67.5 µM (inactive) |  | 45.1 µM (inactive) | > 100 µM (inactive) | > 100 µM (inactive) | 39.7 µM (inactive) | 95.5 µM (inactive) | > 100 µM (inactive) | > 100 µM (inactive) | > 100 µM (inactive) | 71.6 µM (inactive)
12 | CC[C@H]1C=CCC[C@@]2(C[C@@H]3CC[C@H]4[C@@H](C(=O)OCCCCCCCCCCCCCCCC(=O)N(CCCN)C[C@@H](O)CCN)[C@@]5(CCC[C@@H](C)O5)NC(=[N+]34)N2)O1 | 3.4 µM (inactive) | 1.23 µM (inactive) | 1.64 µM (inactive) |  | 1.87 µM (inactive) | 5.64 µM (inactive) | 2.14 µM (inactive) | 1.8 µM (inactive) | 1.6 µM (inactive) | 2.01 µM (inactive) | 1.47 µM (inactive) | 1.66 µM (inactive) | 1.78 µM (inactive) | 1.85 µM (inactive) | 1.9 µM (inactive) | 1.61 µM (inactive) | 3.9 µM (inactive) | 1.91 µM (inactive) | 2.96 µM (inactive) | 1.48 µM (inactive)
13 | CC(=O)C(C(=O)C(C)(C)C)C(=O)C(C)(C)C | > 100 µM (inactive) | > 100 µM (inactive) | > 100 µM (inactive) | > 100 µM (inactive) | > 100 µM (inactive) | > 100 µM (inactive) | > 100 µM (inactive) | > 100 µM (inactive) |  | > 100 µM (inactive) | > 100 µM (inactive) | > 100 µM (inactive) | > 100 µM (inactive) | > 100 µM (inactive) | > 100 µM (inactive) | > 100 µM (inactive) | > 100 µM (inactive) | > 100 µM (inactive) | > 100 µM (inactive) | > 100 µM (inactive)
14 | CC(C)CC(NC(=O)C(Cc1ccccc1)NC(=O)C(Cc1ccccc1)NC(=O)OC(C)(C)C)C(=O)OCc1ccccc1 (stereo not drawn) (Boc-Phe-Phe-Leu-OBn; configuration not given here) |  | > 100 µM (inactive) | > 100 µM (inactive) | > 100 µM (inactive) | > 100 µM (inactive) | > 100 µM (inactive) | > 100 µM (inactive) | > 100 µM (inactive) | > 100 µM (inactive) | > 100 µM (inactive) | > 100 µM (inactive) | > 100 µM (inactive) | > 100 µM (inactive) | > 100 µM (inactive) | > 100 µM (inactive) | > 100 µM (inactive) |  | > 100 µM (inactive) | > 100 µM (inactive) | > 100 µM (inactive)
